The results in this text go back to PubChem BioAssay (NCI).

Several values for one entry are separate records, joined by “and”; a condition that tells them apart may be missing. Identical values can stand only once.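 96-well plates; 48 h exposure; 5 concentrations. Endpoints by linear interpolation between flanking doses. Not reached: highest tested concentration assigned. Abbreviation: GI50, concentration required for 50% inhibition of growth. TGI is the concentration that stops growth completely.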 A value given as a limit tells only on which side of the number the result lay.

The TGI is the concentration giving total growth inhibition. Broadly, the GI50 is the concentration at which growth is held to half of that of the control.

In one experiment the test system is ACHN renal. In words: DTP human tumour cell line panel, 48 h.
In turn, `Cc1[nH]c(/C=C2\C(=O)Nc3ccccc32)c(C)c1CCC(=O)O` displayed a TGI of over 100 µM.
Same read-out and setting: the same measure for `c1ccc2c(c1)c1c(c3ccccc32)CN2CCCC2C1` (configuration not stated): 9.35 µM.
`O=C(c1ccc(/C=C/c2n[nH]c3ccccc23)cc1)N1CCNCC1`: the GI50 is > 10 µM and 4.05 µM; the TGI is > 10 µM and 25.3 µM.
Regarding `CCOC(=O)c1c(NC(=O)c2cccc(C(F)(F)F)c2)sc2c(CN(C)C)c(O)ccc12`, the GI50 was 4.49 µM and the TGI is 15.8 µM.
The matching figures for `O=C(Nc1ccc(-n2ccc3c(NC(=O)c4ccccc4)nccc32)cc1)Nc1ccc(Cl)c(Cl)c1`: 1.22 µM and 4.29 µM.
The matching figures for `Cc1cc(C)c(NC(=O)c2sc3nc4c(cc3c2N)CN(Cc2ccccc2)CC4)c(C)c1`: 6.31 µM and over 100 µM.
The matching figures for `O=C1NC(=NCCc2cccc(Cl)c2)S/C1=C\c1ccc2ncccc2c1`: over 25 µM and over 25 µM.
As to `N#CC1=C(N)Oc2cc(O)ccc2C1c1cccc2ccccc12` (configuration not stated), the GI50 was 17.2 µM and the TGI was 35 µM.

The test system of a further experiment is K-562 leukemia. In words: DTP human tumour cell line panel, 48 h.
The compound `Cc1[nH]c(/C=C2\C(=O)Nc3ccccc32)c(C)c1CCC(=O)O` had a TGI of over 100 µM.
Still for that read-out and setting: the same measure for `c1ccc2c(c1)c1c(c3ccccc32)CN2CCCC2C1` (configuration not stated): over 100 µM.
With `O=C(c1ccc(/C=C/c2n[nH]c3ccccc23)cc1)N1CCNCC1`, the GI50 is 1.45 µM and 1.37 µM; the TGI is 3.58 µM and 21.5 µM.
With `CCOC(=O)c1c(NC(=O)c2cccc(C(F)(F)F)c2)sc2c(CN(C)C)c(O)ccc12`, the GI50 is 1.83 µM and the TGI is 4.76 µM.
The matching figures for `O=C(Nc1ccc(-n2ccc3c(NC(=O)c4ccccc4)nccc32)cc1)Nc1ccc(Cl)c(Cl)c1`: 0.736 µM and over 100 µM.
The matching figures for `Cc1cc(C)c(NC(=O)c2sc3nc4c(cc3c2N)CN(Cc2ccccc2)CC4)c(C)c1`: 0.903 µM and over 100 µM.
The matching figures for `O=C1NC(=NCCc2cccc(Cl)c2)S/C1=C\c1ccc2ncccc2c1`: 1.17 µM and over 25 µM.
As for `N#CC1=C(N)Oc2cc(O)ccc2C1c1cccc2ccccc12` (configuration not stated), the GI50 was 3.68 µM and the TGI amounted to 17 µM.

In the next experiment the test system is KM12 colon. Description: DTP human tumour cell line panel, 48 h.
`Cc1[nH]c(/C=C2\C(=O)Nc3ccccc32)c(C)c1CCC(=O)O`: the GI50 was 7.79 µM; the TGI is 51.2 µM and > 100 µM.
On to `c1ccc2c(c1)c1c(c3ccccc32)CN2CCCC2C1` (configuration not stated), for which the TGI worked out at 15.7 µM.
On the same count and under the same terms, the same measure for `O=C(c1ccc(/C=C/c2n[nH]c3ccccc23)cc1)N1CCNCC1`: > 10 µM and 5.35 µM.
In the case of `CCOC(=O)c1c(NC(=O)c2cccc(C(F)(F)F)c2)sc2c(CN(C)C)c(O)ccc12`, the GI50 was 4.92 µM and the TGI was 17.9 µM.
Take `O=C(Nc1ccc(-n2ccc3c(NC(=O)c4ccccc4)nccc32)cc1)Nc1ccc(Cl)c(Cl)c1`: the GI50 is 0.985 µM and the TGI is 2.5 µM.
The matching figures for `Cc1cc(C)c(NC(=O)c2sc3nc4c(cc3c2N)CN(Cc2ccccc2)CC4)c(C)c1`: 3.26 µM and 43.1 µM.
The matching figures for `O=C1NC(=NCCc2cccc(Cl)c2)S/C1=C\c1ccc2ncccc2c1`: 1.32 µM and over 25 µM.
As to `N#CC1=C(N)Oc2cc(O)ccc2C1c1cccc2ccccc12` (configuration not stated), the GI50 is 6.68 µM and the TGI was over 100 µM.

Another experiment concerns MDA-MB-435. Description: DTP human tumour cell line panel, 48 h.
On to `Cc1[nH]c(/C=C2\C(=O)Nc3ccccc32)c(C)c1CCC(=O)O`, for which the GI50 is 23.5 µM; the concentration for total growth inhibition (TGI) was 84.2 µM and > 100 µM.
In turn, `c1ccc2c(c1)c1c(c3ccccc32)CN2CCCC2C1` (configuration not stated) yielded a TGI of 31.6 µM. This lies in the double-digit micromolar range.
For the compound `O=C(c1ccc(/C=C/c2n[nH]c3ccccc23)cc1)N1CCNCC1`, the GI50 is 1.54 µM and 2.58 µM; the TGI was 2.9 µM and 15.5 µM.
Turning to `CCOC(=O)c1c(NC(=O)c2cccc(C(F)(F)F)c2)sc2c(CN(C)C)c(O)ccc12`, the GI50 was 3.15 µM and the TGI turned out to be 12.9 µM.
The matching figures for `O=C(Nc1ccc(-n2ccc3c(NC(=O)c4ccccc4)nccc32)cc1)Nc1ccc(Cl)c(Cl)c1`: 1.31 µM and 2.81 µM.
The matching figures for `Cc1cc(C)c(NC(=O)c2sc3nc4c(cc3c2N)CN(Cc2ccccc2)CC4)c(C)c1`: 0.399 µM and 4.38 µM.
On to `O=C1NC(=NCCc2cccc(Cl)c2)S/C1=C\c1ccc2ncccc2c1`, for which the GI50 was 0.635 µM and the TGI was over 25 µM.
In the case of `N#CC1=C(N)Oc2cc(O)ccc2C1c1cccc2ccccc12` (configuration not stated), the GI50 is 2.51 µM and the TGI was 6.68 µM.

The next experiment concerns MOLT-4 leukemia. In words: DTP human tumour cell line panel, 48 h.
As to `Cc1[nH]c(/C=C2\C(=O)Nc3ccccc32)c(C)c1CCC(=O)O`, the GI50 is 26.5 µM; the TGI was 69.4 µM and 84.4 µM.
In the case of `c1ccc2c(c1)c1c(c3ccccc32)CN2CCCC2C1` (configuration not stated), the TGI was over 100 µM.
On to `O=C(c1ccc(/C=C/c2n[nH]c3ccccc23)cc1)N1CCNCC1`, for which the GI50 was 2.26 µM and 2.27 µM; the total growth inhibition concentration (TGI) was 5.79 µM and 36.3 µM.
On to `CCOC(=O)c1c(NC(=O)c2cccc(C(F)(F)F)c2)sc2c(CN(C)C)c(O)ccc12`, for which the GI50 is 3.77 µM and the TGI came to 38.8 µM.
For the compound `O=C(Nc1ccc(-n2ccc3c(NC(=O)c4ccccc4)nccc32)cc1)Nc1ccc(Cl)c(Cl)c1`, the GI50 is 0.908 µM and the TGI came to 8.56 µM.
The matching figures for `Cc1cc(C)c(NC(=O)c2sc3nc4c(cc3c2N)CN(Cc2ccccc2)CC4)c(C)c1`: 4.15 µM and over 100 µM.
The matching figures for `O=C1NC(=NCCc2cccc(Cl)c2)S/C1=C\c1ccc2ncccc2c1`: over 25 µM and over 25 µM.
As to `N#CC1=C(N)Oc2cc(O)ccc2C1c1cccc2ccccc12` (configuration not stated), the GI50 is 5.58 µM and the TGI is 31.3 µM.

A further experiment deals with OVCAR-3 ovarian. In words: DTP human tumour cell line panel, 48 h.
On to `Cc1[nH]c(/C=C2\C(=O)Nc3ccccc32)c(C)c1CCC(=O)O`, for which the GI50 was 28.8 µM; the TGI was > 100 µM and 73.3 µM.
`c1ccc2c(c1)c1c(c3ccccc32)CN2CCCC2C1` (configuration not stated) gave a TGI of 22.9 µM.
On to `O=C(c1ccc(/C=C/c2n[nH]c3ccccc23)cc1)N1CCNCC1`, for which the GI50 is 9.32 µM and 8.01 µM; the TGI was > 10 µM and 24 µM.
With `CCOC(=O)c1c(NC(=O)c2cccc(C(F)(F)F)c2)sc2c(CN(C)C)c(O)ccc12`, the GI50 is 10.1 µM and the TGI was found to be 21.7 µM.
Regarding `O=C(Nc1ccc(-n2ccc3c(NC(=O)c4ccccc4)nccc32)cc1)Nc1ccc(Cl)c(Cl)c1`, the GI50 is 1.34 µM and the TGI was found to be 2.75 µM.
The matching figures for `Cc1cc(C)c(NC(=O)c2sc3nc4c(cc3c2N)CN(Cc2ccccc2)CC4)c(C)c1`: 2.32 µM and 12.6 µM.
`O=C1NC(=NCCc2cccc(Cl)c2)S/C1=C\c1ccc2ncccc2c1`: the GI50 is over 25 µM and the TGI was over 25 µM.
Take `N#CC1=C(N)Oc2cc(O)ccc2C1c1cccc2ccccc12` (configuration not stated): the GI50 is 4.07 µM and the TGI was determined as 16.6 µM.

Another experiment relates to SR leukemia. In words: DTP human tumour cell line panel, 48 h.
For `Cc1[nH]c(/C=C2\C(=O)Nc3ccccc32)c(C)c1CCC(=O)O`, the GI50 was 19.7 µM; the TGI was 48.7 µM and 57.9 µM.
Turning to `c1ccc2c(c1)c1c(c3ccccc32)CN2CCCC2C1` (configuration not stated), the TGI is over 100 µM.
`O=C(c1ccc(/C=C/c2n[nH]c3ccccc23)cc1)N1CCNCC1`: the GI50 is 1.85 µM and 0.407 µM; the TGI is 4.23 µM and 10.3 µM.
For the compound `CCOC(=O)c1c(NC(=O)c2cccc(C(F)(F)F)c2)sc2c(CN(C)C)c(O)ccc12`, the GI50 was 3.16 µM and the TGI came to 6.92 µM.
The matching figures for `O=C(Nc1ccc(-n2ccc3c(NC(=O)c4ccccc4)nccc32)cc1)Nc1ccc(Cl)c(Cl)c1`: 0.132 µM and 0.932 µM.
The matching figures for `Cc1cc(C)c(NC(=O)c2sc3nc4c(cc3c2N)CN(Cc2ccccc2)CC4)c(C)c1`: 1.83 µM and 10.7 µM.
The matching figures for `O=C1NC(=NCCc2cccc(Cl)c2)S/C1=C\c1ccc2ncccc2c1`: 0.403 µM and over 25 µM.
As for `N#CC1=C(N)Oc2cc(O)ccc2C1c1cccc2ccccc12` (configuration not stated), the GI50 is 3.26 µM and the TGI amounted to 14.8 µM.

In another experiment the test system is UACC-257 melanoma. In words: DTP human tumour cell line panel, 48 h.
For the compound `Cc1[nH]c(/C=C2\C(=O)Nc3ccccc32)c(C)c1CCC(=O)O`, the GI50 was 20.4 µM; the TGI was 63 µM and 81.1 µM.
The compound `c1ccc2c(c1)c1c(c3ccccc32)CN2CCCC2C1` (configuration not stated) registered a TGI of 20.3 µM.
Turning to `O=C(c1ccc(/C=C/c2n[nH]c3ccccc23)cc1)N1CCNCC1`, the GI50 is 1.76 µM and 7.57 µM; the TGI was 3.3 µM and 21 µM.
For the compound `CCOC(=O)c1c(NC(=O)c2cccc(C(F)(F)F)c2)sc2c(CN(C)C)c(O)ccc12`, the GI50 is 1.76 µM and the TGI was 3.31 µM.
The matching figures for `O=C(Nc1ccc(-n2ccc3c(NC(=O)c4ccccc4)nccc32)cc1)Nc1ccc(Cl)c(Cl)c1`: 1.96 µM and 4.52 µM.
The matching figures for `Cc1cc(C)c(NC(=O)c2sc3nc4c(cc3c2N)CN(Cc2ccccc2)CC4)c(C)c1`: 6.71 µM and over 100 µM.
The matching figures for `O=C1NC(=NCCc2cccc(Cl)c2)S/C1=C\c1ccc2ncccc2c1`: over 25 µM and over 25 µM.
Regarding `N#CC1=C(N)Oc2cc(O)ccc2C1c1cccc2ccccc12` (configuration not stated), the GI50 was 14.1 µM and the TGI worked out at 30.1 µM.
